{"source": "patent US20130237535A1", "about": "“FATTY ACID SYNTHASE INHIBITORS” (priority 2010, published 2013)"}
{"biological_target": "FAS (Homo sapiens, UniProt P49327)", "sequence (P49327 whole entry)": "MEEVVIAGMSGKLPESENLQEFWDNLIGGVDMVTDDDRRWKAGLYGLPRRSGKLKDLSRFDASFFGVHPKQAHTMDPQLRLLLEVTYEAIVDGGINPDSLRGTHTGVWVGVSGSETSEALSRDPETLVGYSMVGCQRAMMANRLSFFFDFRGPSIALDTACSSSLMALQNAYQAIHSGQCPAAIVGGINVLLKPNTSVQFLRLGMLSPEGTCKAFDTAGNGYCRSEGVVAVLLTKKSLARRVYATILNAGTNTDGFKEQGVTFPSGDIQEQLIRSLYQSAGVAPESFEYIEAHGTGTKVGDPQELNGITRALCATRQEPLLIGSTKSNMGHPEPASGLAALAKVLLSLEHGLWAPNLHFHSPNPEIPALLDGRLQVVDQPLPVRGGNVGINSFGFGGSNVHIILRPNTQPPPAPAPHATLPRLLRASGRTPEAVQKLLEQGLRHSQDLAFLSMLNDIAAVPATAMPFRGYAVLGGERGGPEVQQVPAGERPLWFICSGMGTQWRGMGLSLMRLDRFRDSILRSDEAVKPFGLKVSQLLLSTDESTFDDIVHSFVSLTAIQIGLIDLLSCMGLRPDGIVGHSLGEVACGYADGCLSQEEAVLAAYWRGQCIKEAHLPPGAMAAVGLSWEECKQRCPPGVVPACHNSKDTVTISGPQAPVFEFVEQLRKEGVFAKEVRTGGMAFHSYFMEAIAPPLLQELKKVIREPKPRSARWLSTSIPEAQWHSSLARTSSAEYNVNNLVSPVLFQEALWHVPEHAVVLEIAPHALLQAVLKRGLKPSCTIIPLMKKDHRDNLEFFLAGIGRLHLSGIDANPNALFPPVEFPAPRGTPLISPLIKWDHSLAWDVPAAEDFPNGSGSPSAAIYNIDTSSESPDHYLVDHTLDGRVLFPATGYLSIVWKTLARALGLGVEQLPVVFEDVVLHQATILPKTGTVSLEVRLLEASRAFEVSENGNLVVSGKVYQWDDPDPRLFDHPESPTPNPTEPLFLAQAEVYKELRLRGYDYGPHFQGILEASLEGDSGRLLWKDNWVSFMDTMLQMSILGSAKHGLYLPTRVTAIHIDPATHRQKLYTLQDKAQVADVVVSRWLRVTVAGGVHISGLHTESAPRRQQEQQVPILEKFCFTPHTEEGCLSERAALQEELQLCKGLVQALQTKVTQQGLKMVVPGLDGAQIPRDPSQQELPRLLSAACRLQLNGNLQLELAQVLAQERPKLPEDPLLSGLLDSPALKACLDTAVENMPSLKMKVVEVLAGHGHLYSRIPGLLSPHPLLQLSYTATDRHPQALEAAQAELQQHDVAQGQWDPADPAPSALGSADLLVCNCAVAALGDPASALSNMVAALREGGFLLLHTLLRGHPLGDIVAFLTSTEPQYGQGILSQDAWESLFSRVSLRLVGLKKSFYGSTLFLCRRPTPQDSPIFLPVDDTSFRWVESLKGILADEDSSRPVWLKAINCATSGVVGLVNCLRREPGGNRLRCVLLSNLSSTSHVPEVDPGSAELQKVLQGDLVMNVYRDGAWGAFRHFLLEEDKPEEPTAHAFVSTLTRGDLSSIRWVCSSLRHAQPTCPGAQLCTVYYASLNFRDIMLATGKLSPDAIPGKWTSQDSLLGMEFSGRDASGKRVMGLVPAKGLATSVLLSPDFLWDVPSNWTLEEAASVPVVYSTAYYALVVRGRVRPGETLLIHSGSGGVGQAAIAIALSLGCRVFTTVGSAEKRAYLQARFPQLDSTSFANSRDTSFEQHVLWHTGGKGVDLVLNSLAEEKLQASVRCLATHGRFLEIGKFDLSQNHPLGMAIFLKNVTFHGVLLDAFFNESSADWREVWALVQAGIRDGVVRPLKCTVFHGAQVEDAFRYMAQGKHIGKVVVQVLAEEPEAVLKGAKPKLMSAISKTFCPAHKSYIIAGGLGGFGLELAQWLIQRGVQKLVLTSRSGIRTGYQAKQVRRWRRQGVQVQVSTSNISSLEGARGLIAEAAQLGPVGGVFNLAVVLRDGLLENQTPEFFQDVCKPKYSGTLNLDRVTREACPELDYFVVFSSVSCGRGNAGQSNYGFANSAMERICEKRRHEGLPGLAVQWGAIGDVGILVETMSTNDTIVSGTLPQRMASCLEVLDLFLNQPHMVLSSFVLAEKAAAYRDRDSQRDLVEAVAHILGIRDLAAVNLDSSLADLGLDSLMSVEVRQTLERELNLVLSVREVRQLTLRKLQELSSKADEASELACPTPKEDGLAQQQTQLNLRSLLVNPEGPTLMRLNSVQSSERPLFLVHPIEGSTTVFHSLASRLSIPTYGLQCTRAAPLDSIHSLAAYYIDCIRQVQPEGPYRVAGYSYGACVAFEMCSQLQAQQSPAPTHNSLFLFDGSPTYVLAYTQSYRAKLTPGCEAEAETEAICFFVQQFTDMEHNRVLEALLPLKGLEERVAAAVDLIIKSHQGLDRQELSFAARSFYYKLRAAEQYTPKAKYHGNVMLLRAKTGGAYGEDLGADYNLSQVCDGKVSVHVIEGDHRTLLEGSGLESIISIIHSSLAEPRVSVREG", "experiment": "FAS assay (Assay #1 residual NADPH detection or Assay #2 CoA detection with thio-reactive coumarin dye)", "format": "biochemical", "conditions": "average IC50 values, each compound tested two or more times; FAS Assay #1 or #2", "protocol": "FAS activity was measured through one of the two following assays.\nInhibition of FAS activity can be measured based on the detection of residual NADPH substrate after the FAS assay is quenched. This assay is run as a 10 μL, endpoint assay in 384-well format, where the reaction contains 20 μM malonyl-CoA, 2 μM acetyl-CoA, 30 μM NADPH and 40 nM FAS in 50 mM sodium phosphate, pH 7.0. The assay is run by sequentially dispensing 5 μl of a malonyl-CoA solution, then enzyme solution (containing the acetyl-CoA, and NADPH) into a black, low volume assay plate (Greiner 784076) pre-dispensed with 100 nL compound solutions in DMSO. The reaction is incubated at ambient temperature for 60 minutes, then quenched with 5 μL, of a developing solution composed of 90 μM resazurin, 0.3 IU/ml diaphorase in 50 mM sodium phosphate, pH 7.0. The developed reaction is read on a Molecular Devices Analyst or Acquest (or equivalent) plate reader using a 530 nm excitation wavelength filter, a 580 nm emission filter, and 561 nm dichroic filter. The test compounds are prepared in neat DMSO at a concentration of 10 mM. For inhibition curves, compounds are diluted using a three fold serial dilution and tested at 11 concentrations (e.g. 25 μM-0.42 nM). Curves are analysed using ActivityBase and XLfit, and results are expressed as pIC50 values.\nInhibition of FAS can also be quantified based on the detection of the CoA products with a thio-reactive coumarin dye. This assay is run as a 10 μL endpoint assay in 384-well format, where the reaction contains 20 μM malonyl-CoA, 20 μM acetyl-CoA, 40 μM NADPH and 2 nM FAS in 50 mM sodium phosphate, pH 7.0, and 0.04% Tween-20. The assay is run by adding 5 μL enzyme solution to a black, low volume assay plate (Greiner 784076) pre-dispensed with 100 nl compound solutions in DMSO. After 30 minutes, 5 μL substrate is added, and the reaction incubated at ambient temperature for an additional 60 minutes. The reaction is then quenched with 10 μL of 6M guanidine-HCl containing 50 μM CPM (7-diethylamino-3-(4′-maleimidylphenyl)-4-methylcoumarin (CPM; thio-reactive dye), and incubated for 30 minutes. The plate is read on an Envision (PerkinElmer) or equivalent plate reader using a 380 nm excitation wavelength filter, and a 486 nm emission filter. Data fitting and compound preparations are done as described above.", "units": {"IC50": "nM"}}
{"smiles": "CCN1CC2(CCN(S(=O)(=O)c3ccc(-c4ccc5occc5c4)cc3)CC2)OCC1=O", "note": "[Example 3, 9-{[4-(1-benzofuran-5-yl)phenyl]sulfonyl}-4-ethyl-1-oxa-4,9-diazaspiro[5.5]undecan-3-one]", "IC50": 251}
{"smiles": "O=C1COC2(CCN(S(=O)(=O)c3ccc(-c4ccccc4)cc3)CC2)CN1C1CC1", "note": "[Example 13, 9-(4-biphenylylsulfonyl)-4-cyclopropyl-1-oxa-4,9-diazaspiro[5.5]undecan-3-one]", "IC50": 1260}
{"smiles": "O=C1COC2(CCN(S(=O)(=O)c3ccc(-c4ccc5cc[nH]c5c4)cc3)CC2)CN1C1CC1", "note": "[Example 14, 4-cyclopropyl-9-{[4-(1H-indol-6-yl)phenyl]sulfonyl}-1-oxa-4,9-diazaspiro[5.5]undecan-3-one]", "IC50": 40}
{"smiles": "O=C1COC2(CCN(S(=O)(=O)c3ccc(-c4cc5ccccc5o4)cc3)CC2)CN1C1CC1", "note": "[Example 26, 9-{[4-(1-benzofuran-2-yl)phenyl]sulfonyl}-4-cyclopropyl-1-oxa-4,9-diazaspiro[5.5]undecan-3-one]", "IC50": 200}
{"smiles": "O=C1COC2(CCN(S(=O)(=O)c3ccc(-c4ccc5cccnc5c4)cc3)CC2)CN1C1CC1", "note": "[Example 29, 4-cyclopropyl-9-{[4-(7-quinolinyl)phenyl]sulfonyl}-1-oxa-4,9-diazaspiro[5.5]undecan-3-one]", "IC50": 10}
{"smiles": "O=C1COC2(CCN(S(=O)(=O)c3ccc(-c4ccc5cccnc5c4)cc3F)CC2)CN1C1CC1", "note": "[Example 59, 4-cyclopropyl-9-{[2-fluoro-4-(7-quinolinyl)phenyl]sulfonyl}-1-oxa-4,9-diazaspiro[5.5]undecan-3-one]", "IC50": 13}
{"smiles": "O=C1COC2(CCN(S(=O)(=O)c3ccc(-c4ccc5[nH]ccc5c4)cc3F)CC2)CN1C1CC1", "note": "[Example 70, 4-cyclopropyl-9-{[2-fluoro-4-(1H-indol-5-yl)phenyl]sulfonyl}-1-oxa-4,9-diazaspiro[5.5]undecan-3-one]", "IC50": 32}
{"smiles": "O=C1COC2(CCN(S(=O)(=O)c3ccc(-c4ccc5scnc5c4)cc3F)CC2)CN1C1CC1", "note": "[Example 76, 9-{[4-(1,3-benzothiazol-5-yl)-2-fluorophenyl]sulfonyl}-4-cyclopropyl-1-oxa-4,9-diazaspiro[5.5]undecan-3-one]", "IC50": 32}
{"smiles": "O=C1COC2(CCN(S(=O)(=O)c3ccc(-c4ccc5cnccc5c4)cc3)CC2)CN1C1CC1", "note": "[Example 86, 4-cyclopropyl-9-{[4-(6-isoquinolinyl)phenyl]sulfonyl}-1-oxa-4,9-diazaspiro[5.5]undecan-3-one]", "IC50": 6}
{"smiles": "Cn1nc(NS(C)(=O)=O)c2cc(-c3ccc(S(=O)(=O)N4CCC5(CC4)CN(C4CC4)C(=O)CO5)cc3)ccc21", "note": "[Example 105, N-(5-{4-[(4-cyclopropyl-3-oxo-1-oxa-4,9-diazaspiro[5.5]undec-9-yl)sulfonyl]phenyl}-1-methyl-1H-indazol-3-yl)methanesulfonamide]", "IC50": 63}
